# From ChEMBL document CHEMBL5143540, “Design, synthesis and biological evaluation of nitrofuran-1,3,4-oxadiazole hybrids as new antitubercular agents” (Bioorg Med Chem, 2022)
# Test system: Mycobacterium tuberculosis
# Assay: Antitubercular activity against multi-drug resistant Mycobacterium tuberculosis 16833 assessed as reduction in bacterial growth incubated for 7 days by Alamar blue assay
# Format: functional
# Details: Mycobacterium tuberculosis, 16833, 168 h; time 7 day
row,SMILES,MIC [µg/mL]
1,COc1ccc(-c2nnc(CNC(=O)c3ccc([N+](=O)[O-])o3)o2)cc1,3.58
2,CC(C)(C)c1ccc(-c2nnc(CNC(=O)c3ccc([N+](=O)[O-])o3)o2)cc1,1.85
3,CC(C)(C)c1ccc(-c2nnc(-c3ccc([N+](=O)[O-])o3)o2)cc1,> 32
4,O=C(NCc1nnc(-c2ccc(OC(F)(F)F)cc2)o1)c1ccc([N+](=O)[O-])o1,1.96
5,O=C(Nc1nnc(-c2ccc(Br)cc2)o1)c1ccc([N+](=O)[O-])o1,1.44
6,O=C(NCc1nnc(-c2ccc(C(F)(F)F)cc2)o1)c1ccc([N+](=O)[O-])o1,1.93
7,NNC(=O)c1ccncc1 [ISONIAZID],> 32
8,CO[C@H]1/C=C/O[C@@]2(C)Oc3c(C)c(O)c4c(O)c(c(/C=N/N5CCN(C)CC5)c(O)c4c3C2=O)NC(=O)/C(C)=C\C=C\[C@H](C)[C@H](O)[C@@H](C)[C@@H](O)[C@@H](C)[C@H](OC(C)=O)[C@@H]1C [RIFAMPIN],> 32
